The source of these data is publication PMC11053447, “Human ABC and SLC Transporters: The Culprit Responsible for Unspecific PSMA-617 Uptake?” (Pharmaceuticals, 2024).

A word on the inhibition: it is the change of the read-out against control, counted positive when it falls.

One data set addresses MRP1 (Homo sapiens, UniProt P33527).
A further data set concerns the target T1, MRP4 (Homo sapiens, UniProt O15439).
T1 construct: host or cells: HEK293 (membrane vesicles)
T1 sequence (O15439 1-1325): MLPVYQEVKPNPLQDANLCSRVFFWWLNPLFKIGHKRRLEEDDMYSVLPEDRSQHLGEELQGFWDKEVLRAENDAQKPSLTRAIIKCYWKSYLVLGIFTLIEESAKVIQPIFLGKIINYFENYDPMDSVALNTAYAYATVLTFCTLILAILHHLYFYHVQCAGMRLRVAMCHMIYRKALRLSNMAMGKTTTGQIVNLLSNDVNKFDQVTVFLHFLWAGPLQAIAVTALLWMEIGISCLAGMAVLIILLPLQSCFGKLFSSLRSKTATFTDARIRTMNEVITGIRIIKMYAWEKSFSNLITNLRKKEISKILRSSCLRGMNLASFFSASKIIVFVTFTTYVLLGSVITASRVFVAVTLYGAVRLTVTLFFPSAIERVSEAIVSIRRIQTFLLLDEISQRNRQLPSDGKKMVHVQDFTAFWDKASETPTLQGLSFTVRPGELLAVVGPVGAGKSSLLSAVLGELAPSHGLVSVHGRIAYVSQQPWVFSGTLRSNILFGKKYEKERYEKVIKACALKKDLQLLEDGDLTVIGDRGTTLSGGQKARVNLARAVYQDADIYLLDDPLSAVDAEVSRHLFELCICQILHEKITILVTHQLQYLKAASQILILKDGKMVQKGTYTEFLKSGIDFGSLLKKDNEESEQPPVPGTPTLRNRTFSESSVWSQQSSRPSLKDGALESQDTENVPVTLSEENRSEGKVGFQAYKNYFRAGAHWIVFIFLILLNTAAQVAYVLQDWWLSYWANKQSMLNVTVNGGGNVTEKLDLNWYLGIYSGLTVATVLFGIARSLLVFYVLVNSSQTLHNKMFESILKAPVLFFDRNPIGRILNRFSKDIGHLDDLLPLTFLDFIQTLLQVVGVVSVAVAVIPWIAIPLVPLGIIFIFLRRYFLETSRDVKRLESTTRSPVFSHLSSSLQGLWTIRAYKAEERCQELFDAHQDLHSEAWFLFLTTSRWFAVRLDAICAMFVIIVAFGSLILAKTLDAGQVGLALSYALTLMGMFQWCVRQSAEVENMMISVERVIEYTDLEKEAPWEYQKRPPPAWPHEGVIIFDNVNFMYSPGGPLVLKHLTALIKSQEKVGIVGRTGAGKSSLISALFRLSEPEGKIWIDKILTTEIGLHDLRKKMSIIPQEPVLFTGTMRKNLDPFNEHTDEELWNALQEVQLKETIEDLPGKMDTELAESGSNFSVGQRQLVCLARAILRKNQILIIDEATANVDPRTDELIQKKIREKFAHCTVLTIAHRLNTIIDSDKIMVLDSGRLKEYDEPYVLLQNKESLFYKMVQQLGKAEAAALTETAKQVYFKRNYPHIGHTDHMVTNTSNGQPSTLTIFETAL
Description: Vesicular transport inhibition assay (ABC), MRP4-mediated DHEAS transport, HEK293 membrane vesicles. Type of data set: in vitro ADME. The note with it: positive control inhibitor 150.0 µM, DHEAS probe.

Another data set addresses MDR1 (Homo sapiens, UniProt P08183).
Details of data set [1]: method as in PMID 37191680. The note with it: PSMA-null mice; cited from earlier work.
Details of data set [2]: method as in PMID 29651569. The following applies: within the first 24 h post injection; cited from earlier work.
The conditions of data set [3]: cited from earlier work.
The mark [4] stands for this setting: positive control inhibitor 200.0 µM, E217βG probe, mean (n=3) ± SD.

Chain of MRP1 (P33527 whole entry): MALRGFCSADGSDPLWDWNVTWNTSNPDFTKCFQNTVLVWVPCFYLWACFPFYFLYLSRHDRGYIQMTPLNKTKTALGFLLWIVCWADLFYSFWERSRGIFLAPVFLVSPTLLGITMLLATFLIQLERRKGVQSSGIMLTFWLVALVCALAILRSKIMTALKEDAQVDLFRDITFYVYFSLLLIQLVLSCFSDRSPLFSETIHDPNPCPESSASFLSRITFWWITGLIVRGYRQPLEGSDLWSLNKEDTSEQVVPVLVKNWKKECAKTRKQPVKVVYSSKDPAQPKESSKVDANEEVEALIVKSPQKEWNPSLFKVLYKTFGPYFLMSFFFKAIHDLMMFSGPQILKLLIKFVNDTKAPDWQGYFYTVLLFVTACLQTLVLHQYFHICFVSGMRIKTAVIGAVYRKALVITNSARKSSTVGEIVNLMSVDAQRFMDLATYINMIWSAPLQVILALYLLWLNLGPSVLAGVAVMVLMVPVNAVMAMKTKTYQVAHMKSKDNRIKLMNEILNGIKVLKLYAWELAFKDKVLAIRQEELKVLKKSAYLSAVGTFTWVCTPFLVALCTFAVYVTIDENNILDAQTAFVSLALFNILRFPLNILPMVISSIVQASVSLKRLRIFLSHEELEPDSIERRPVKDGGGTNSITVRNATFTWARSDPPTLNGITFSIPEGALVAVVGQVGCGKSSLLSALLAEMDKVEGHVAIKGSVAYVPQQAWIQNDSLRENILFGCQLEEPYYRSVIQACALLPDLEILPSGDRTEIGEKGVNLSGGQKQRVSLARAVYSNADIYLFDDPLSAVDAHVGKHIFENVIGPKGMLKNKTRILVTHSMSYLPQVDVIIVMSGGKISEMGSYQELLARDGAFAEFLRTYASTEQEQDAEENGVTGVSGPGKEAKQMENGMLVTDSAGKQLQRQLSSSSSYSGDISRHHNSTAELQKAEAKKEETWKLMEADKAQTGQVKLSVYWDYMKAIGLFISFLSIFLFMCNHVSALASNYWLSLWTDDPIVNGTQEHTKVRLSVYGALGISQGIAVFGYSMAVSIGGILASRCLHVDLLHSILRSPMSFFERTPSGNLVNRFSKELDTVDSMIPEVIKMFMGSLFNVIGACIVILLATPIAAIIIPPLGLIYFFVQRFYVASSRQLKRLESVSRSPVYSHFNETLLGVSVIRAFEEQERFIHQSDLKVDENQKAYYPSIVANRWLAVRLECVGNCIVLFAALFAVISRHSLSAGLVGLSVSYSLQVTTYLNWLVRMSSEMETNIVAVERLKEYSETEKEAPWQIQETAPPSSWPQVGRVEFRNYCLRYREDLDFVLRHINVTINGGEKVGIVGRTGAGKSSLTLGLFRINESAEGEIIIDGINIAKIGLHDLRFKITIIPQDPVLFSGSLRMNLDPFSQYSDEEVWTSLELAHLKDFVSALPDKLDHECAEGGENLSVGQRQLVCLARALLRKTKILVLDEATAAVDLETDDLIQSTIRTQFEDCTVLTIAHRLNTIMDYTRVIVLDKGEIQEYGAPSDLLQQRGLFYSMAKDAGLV
Chain of MDR1 (P08183 whole entry): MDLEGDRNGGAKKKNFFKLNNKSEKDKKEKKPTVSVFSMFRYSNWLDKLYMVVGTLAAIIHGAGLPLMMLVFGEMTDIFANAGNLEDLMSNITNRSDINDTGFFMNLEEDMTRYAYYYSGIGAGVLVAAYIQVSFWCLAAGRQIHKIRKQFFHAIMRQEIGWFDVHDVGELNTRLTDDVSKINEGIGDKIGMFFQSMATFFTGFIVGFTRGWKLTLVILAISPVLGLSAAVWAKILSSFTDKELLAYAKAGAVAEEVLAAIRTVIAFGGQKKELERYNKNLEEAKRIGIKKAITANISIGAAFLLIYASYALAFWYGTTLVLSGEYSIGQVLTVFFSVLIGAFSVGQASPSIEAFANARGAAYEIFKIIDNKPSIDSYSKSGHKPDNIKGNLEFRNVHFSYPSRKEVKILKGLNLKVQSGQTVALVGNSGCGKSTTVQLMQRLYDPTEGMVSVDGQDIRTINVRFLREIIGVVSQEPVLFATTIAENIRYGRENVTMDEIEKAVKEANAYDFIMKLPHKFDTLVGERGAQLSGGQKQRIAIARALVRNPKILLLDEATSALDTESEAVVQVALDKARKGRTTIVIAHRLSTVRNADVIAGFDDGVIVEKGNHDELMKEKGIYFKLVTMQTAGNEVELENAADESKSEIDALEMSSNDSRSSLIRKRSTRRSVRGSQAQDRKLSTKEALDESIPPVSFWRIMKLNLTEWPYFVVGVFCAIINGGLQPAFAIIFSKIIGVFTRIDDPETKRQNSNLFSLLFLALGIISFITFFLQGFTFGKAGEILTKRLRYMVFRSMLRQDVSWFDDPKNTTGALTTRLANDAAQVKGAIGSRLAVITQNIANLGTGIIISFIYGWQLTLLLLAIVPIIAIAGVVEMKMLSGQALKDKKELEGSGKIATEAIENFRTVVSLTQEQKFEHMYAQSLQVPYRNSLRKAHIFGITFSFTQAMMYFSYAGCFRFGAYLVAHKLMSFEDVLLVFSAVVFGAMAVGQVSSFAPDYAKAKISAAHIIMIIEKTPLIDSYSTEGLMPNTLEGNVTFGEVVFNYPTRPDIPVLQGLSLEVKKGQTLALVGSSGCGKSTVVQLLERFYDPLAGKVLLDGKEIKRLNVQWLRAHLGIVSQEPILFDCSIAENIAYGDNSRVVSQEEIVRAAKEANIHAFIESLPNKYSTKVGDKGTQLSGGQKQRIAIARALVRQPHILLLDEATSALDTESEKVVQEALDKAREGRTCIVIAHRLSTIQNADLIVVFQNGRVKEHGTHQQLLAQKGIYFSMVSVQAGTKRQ
Description for MDR1: (§1) The incubations were carried out in the presence of 4 mM ATP or AMP to distinguish between transporter-mediated uptake and passive diffusion into the vesicles. […] Afterwards, the reaction mixtures were pre-incubated for 15 min at 37 °C for MRP1 or at 32 °C for BCRP, MDR1 and MRP4, respectively. The transporter assay was initiated through the addition of 25 μL of pre-warmed 12 mM MgATP (or 12 mM AMP in assay buffer as a background control). The reactions were quenched through the addition of 200 μL of ice-cold washing buffer and immediate filtration via glass fiber filters mounted onto a 96-well plate (filter plate). The filters were washed (5 × 200 μL of ice-cold washing buffer) and dried, and the amount of probe substrate inside the filtered vesicles was determined using LSC. The experiments were conducted in triplicate.
(§2) Calculation of ATP-dependent transport and inhibition for vesicular transport inhibition
(§3) For all wells the amount of the translocated probe substrate was determined in counts per minute (cpm).
(§4) ATP-dependent transport (pmol/mg protein/min) is calculated for each concentration using the following
𝐴𝑐𝑐𝐴𝑇𝑃 ∙ 𝑉 ∙ 𝐶𝐶 𝐴𝑐𝑐𝐴𝑀𝑃 ∙𝑉 ∙𝐶𝐶
(§5) 𝐴𝑇𝑃 − 𝑑𝑒𝑝𝑒𝑛𝑑𝑒𝑛𝑡 𝑎𝑐𝑐𝑢𝑚𝑢𝑙𝑎𝑡𝑖𝑜𝑛 = ( 𝑇𝐶𝑃𝑀 𝑠𝑢𝑏) − ( 𝑇𝐶𝑃𝑀 𝑠𝑢𝑏)
(§6) • AccATP: probe substrate accumulation with ATP (cpm)
(§7) • AccAMP: probe substrate accumulation with AMP (cpm)
(§8) • Tcpm: cpm in dosing solution V: volume per well (µL)
(§9) • CCsub: probe substrate concentration (µM)
• Prot: total protein per well (mg)
• t: incubation time (min)
(§10) Relative ATP-dependent transport (%) values were calculated using the following equation:
(§11) 𝑅𝑒𝑙𝑎𝑡𝑖𝑣𝑒 𝐴𝑇𝑃 − 𝑑𝑒𝑝𝑒𝑛𝑑𝑒𝑛𝑡 𝑡𝑟𝑎𝑛𝑠𝑝𝑜𝑟𝑡 (%) = 𝐴 − 𝐵 ∙ 100
(§12) • A: amount of translocated substrate in the presence of test substance (TS) and ATP
(§13) • B: amount of translocated substrate in the presence of test substance (TS) and AMP
(§14) • C: amount of translocated substrate in the presence of solvent and ATP
(§15) • D: amount of translocated substrate in the presence of solvent and AMP
(§16) Relative inhibition (%) is calculated by setting probe substrate transport in the absence of test substance as
(§17) 𝑅𝑒𝑙𝑎𝑡𝑖𝑣𝑒 𝑖𝑛ℎ𝑖𝑏𝑖𝑡𝑖𝑜𝑛 (%) = 𝐴𝑐𝑐𝑆𝑝𝑒𝑐𝑖𝑓𝑖𝑐,𝑥 ∙100
(§18) • Accspecific,x: transporter specific accumulation for a given sample (pmol/mg/min)
(§19) • Accspecific,vehicle: transporter specific accumulation for a solvent control (pmol/mg/min)
Data are expressed as mean (n=3)
N-methyl quinidine (NMQ) measured in the vesicular transport inhibition assay.
Nominal ATP Relative ATP Relative
Compound concentration [µM] dependent transport dependent transport inhibition [%]
[pmol/mg/min] [% of control]
Data are expressed as mean (n=3) ± SD.
Description for MRP1: as §1, §2, §3, §4
𝐴𝑐𝑐𝐴𝑇𝑃 ∙ 𝑉 ∙ 𝐶𝐶 𝐴𝑐𝑐𝐴𝑀𝑃 ∙𝑉 ∙𝐶𝐶
as §5, §6, §7, §8, §9
• Prot: total protein per well (mg)
• t: incubation time (min)
as §10, §11, §12, §13, §14, §15, §16, §17, §18, §19

Regarding `CCc1oc2ccccc2c1C(=O)c1cc(Br)c(O)c(Br)c1` [Benzbromarone, benzbromarone, reference compound], the inhibition at 3 min, 200 µM at MRP1 (human, membrane vesicles from Sf9 cells transfected with human MRP1, […], 0.2 µM) came out at 104%. At MRP1 (setting [4]), the ATP dependent transport is given as -26.33 ± 10.19 pmol/mg/min and the “Relative ATP dependent transport” value is given as -3.87 ± 1.50 % of control.

Regarding `CN(C)C(=O)CCSC(SCCC(=O)O)c1cccc(/C=C/c2ccc3ccc(Cl)cc3n2)c1` (stereo not drawn) [MK-571, reference compound], the inhibition at 1.5 min, 150 µM on MRP4 (human, probe dehydroepiandrosterone sulfate (DHEAS), 0.5 µM, read-out: Relative inhibition) is 98%. Further, on MRP4 (mean (n=3) ± SD), the ATP dependent transport was determined as 256.00 ± 59.15 pmol/mg/min and the “Relative ATP dependent transport” value was 2.06 ± 0.48 % of control.

As for `C/C=C/C[C@@H](C)C(=O)[C@H]1C(=O)N[C@@H](C(C)C)C(=O)N(C)CC(=O)N(C)[C@@H](CC(C)C)C(=O)N[C@@H](C(C)C)C(=O)N(C)[C@@H](CC(C)C)C(=O)N[C@@H](C)C(=O)N[C@H](C)C(=O)N(C)[C@@H](CC(C)C)C(=O)N(C)[C@@H](CC(C)C)C(=O)N(C)[C@@H](C(C)C)C(=O)N1C` [Valspodar, reference compound], on MDR1 (human, probe N-methyl quinidine (NMQ), 1.0 µM), the inhibition at 1 min, 1 µM is 96%. In addition, the “Relative ATP dependent transport” value on MDR1 (positive control inhibitor 1.00 µM, NMQ probe, mean (n=3) ± SD) is reported as 4.28 ± 0.62 % of control.

As for `O=C([O-])CN(CCN(CC(=O)[O-])Cc1cc(CCC(=O)NCCCCCC(=O)NCCCC[C@H](NC(=O)N[C@@H](CCC(=O)O)C(=O)O)C(=O)O)ccc1[O-])Cc1cc(CCC(=O)O)ccc1[O-].[68Ga+3].[OH3+]` [[^68Ga]Ga-PSMA-11], in data set [1], the “Uptake by healthy kidneys and SGs” value is “greatly reduced uptake”.

Turning to `O=C([O-])CN1CCN(CC(=O)[O-])CCN(CC(=O)NCC2CCC(C(=O)NC(Cc3ccc4ccccc4c3)C(=O)NCCCCC(NC(=O)NC(CCC(=O)O)C(=O)O)C(=O)O)CC2)CCN(CC(=O)[O-])CC1.[177Lu+3]` (stereo not drawn) [[^177Lu]Lu-PSMA-617], the “Excreted via the renal route in urine” value in data set [2] is “up to 70%”. In data set [3] (kidneys), the “Accumulation in the kidneys” value is 0.5–0.6 Gy/GBq injected dose. For the same molecule, the “Accumulation in the salivary glands” value in data set [3] (salivary glands (SGs)) is “up to 1 Gy/GBq injected dose”.
